Results: patent US20240124520A1, “N-ACYLATED HISTIDINE DIPEPTIDES AS ANTICANCER AGENTS” (THE BOARD OF TRUSTEES OF THE LELAND STANFORD JUNIOR …, priority 2019, published 2024)
Non-standard residues stand in square brackets, D forms with d. Residues, ends and D or L forms follow the SMILES beside them. *: point of attachment. Palmitoyl = CCCCCCCCCCCCCCCC(=O)*

Test system: MDA-MB-231 triple-negative human breast cancer cells
Assay: Cell Titer Blue in vitro cell viability assay, MDA-MB-231
Type: cell-based
Conditions: MDA-MB-231 (DMEM); for IC50: MDA-MB-231, 72 h, 3 days at 37° C.
Protocol: FIG. 1: Dose Response curve for MBC017 with MDA-MB-231 cells. Compound MBC017 was incubated with MDA-MB-231 triple-negative human breast cancer cells at the indicated concentrations for 3 days at 37° C. prior to Cell Titer Blue fluorescence-based cell viability assay. Normalized cell viability data, expressed as a percentage, are averaged from three biological replicates and standard error represented by error bars for each averaged data point (empty squares). The compound concentrations are represented on log scale on the x-axis in μM units. Data were analyzed using free software called DrFit, as described in Nature Scientific Reports, Article number: 14701, (2015). […] The data were not sufficient to calculate an accurate IC50 value.
A commercially available in vitro cell viability reagent (Cell Titer Blue) was employed to determine the anti-cancer effectiveness of several compounds (1-5) against multiple cancer and healthy tissue-derived cell lines. Cell lines are summarized in Table 2, as follows: All cell lines and information on each cell lines origins and characteristics were procured from ATCC (www.atcc.org). Common names and ATCC product IDs are shown in the first (leftmost) column. From the left, the second and third columns describe the organism and tissue from which each cell line was isolated. The fourth and fifth columns indicate the cell type and disease status (e.g. normal versus carcinoma) of each cell line. The sixth column provides a summary of what compounds were tested against each cell line using an in vitro cell viability assay. Peptide name IDs are shown in parenthesis for each compound, numbered 1 through 5.
The Cell Titer Blue reagent (available from Promega, Inc.) is a buffered solution containing resazurin, a compound that is converted to resorufin, a detectable fluorescent product, by metabolically active cells. The fluorescence intensity of resorufin product therefore serves as a proportional measure of the number of viable cells, permitting changes in cell viability within cancer or other cell lines to be monitored in response to the addition of cytotoxic or cytostatic agents. Various human breast tissue-derived cell lines are widely employed to study the effects of potential therapeutics against breast cancer in vitro. Human breast cancer cell lines may be subdivided into groups based upon hormone receptor status, i.e. estrogen, progesterone and human epidermal growth factor positive or negative. A healthy human breast tissue-derived cell line, hTERT-HME1 may be used to determine the effect of therapeutic agents on healthy human breast tissue in vitro. Additionally, a highly metastatic and aggressive murine (mouse) breast cancer cell line, 4T1, has been extensively used to monitor breast cancer metastasis from the mammary fat pads of mice to the lungs in order to systematically survey the anti-metastatic effectiveness of anti-cancer therapeutics in an in vivo animal model. Metastases to the lungs may be conveniently quantified by a well-established clonogenic assay. Other human tissue-derived model cell lines, representative of various cancers, other than breast cancer, may be utilized to assess the potential of anti-cancer compounds in vitro. These include, K-562 (chronic myelogenous leukemia), HEPG2 (hepatocellular carcinoma), OVCAR-3 (ovarian adenocarcinoma), SK—N—SH (neuroblastoma) and A549 (lung carcinoma). Several compounds were assayed in vitro using the Cell Titer Blue viability assay against an array of cancer cell lines of both human and murine origin plus one healthy human breast cell line (Table 1, FIGS. 1-16). A mouse 4T1 metastasis study was performed to determine the anti-metastatic potential of one compound, MBC0179 (FIG. 17).
Dimethyl sulfoxide (DMSO), Cremophor EL, methylene blue, 100× antibiotic/antimycotic solution, collagenase (Type IV), DNAse I and 6-thioguanine were available from Millipore-Sigma. […]

`CCCCCCCCCCCCCCCC(=O)N[C@H](Cc1c[nH]cn1)C(=O)N[C@@H](C(=O)O)C(C)C` [Compound 4, N-[N-(1-oxohexadecyl)-D-histidyl]-D-valine] (Palmitoyl-[dH]-[dV]-OH) gave an IC50 of 62.1 µM.
`CCCCCCCCCCCCCCCC(=O)N[C@@H](Cc1c[nH]cn1)C(=O)N[C@H](C(=O)OCC)C(C)C` [Compound 3, N-[N-(1-oxohexadecyl)-L-histidyl]-L-valine ethyl ester] (Palmitoyl-His-Val-OEt) showed an IC50 of 13.1 µM.
For `CCCCCCCCCCCCCCCC(=O)N[C@@H](Cc1c[nH]cn1)C(=O)N[C@H](C(=O)O)[C@@H](C)CC` [Compound 2, N-[N-(1-oxohexadecyl)-L-histidyl]-L-isoleucine] (Palmitoyl-His-Ile-OH), the IC50 was 6730 µM.
`CCCCCCCCCCCCCCCC(=O)N[C@@H](Cc1c[nH]cn1)C(=O)N[C@H](C(=O)O)C(C)C` [Compound 1, N-[N-(1-oxohexadecyl)-L-histidyl]-L-valine] (Palmitoyl-His-Val-OH) showed a cytotoxicity at 125 µM (72 h, 125 μM, relative to vehicle, 3 days of incubation, read-out: reduction in viability) of roughly 40%.
